Source: ChEMBL document CHEMBL3792311, “In vitro and in vivo activity of ML302F: a thioenolate inhibitor of VIM-subfamily metallo -lactamases” (Medchemcomm, 2016)
Activity calls are given as the source filed them. The rule behind the calls is not given here.

Columns and labels:
[1] = tested on: Pseudomonas aeruginosa; experiment: Potentiation of meropenem-induced antibacterial activity against VIM2 carbapenemase producing multidrug-resistant Pseudomonas aeruginosa GR64 clinical isolate at 1:8 meropenem:compound ratio by checkerboard method; type: functional
[2] = tested on: Klebsiella pneumoniae; experiment: Potentiation of meropenem-induced antibacterial activity against VIM4 carbapenemase producing multidrug-resistant Klebsiella pneumoniae 101 clinical isolate assessed as MIC of meropenem at 1:8 meropenem:compound ratio by broth microtiter dilution method; type: functional
[3] = tested on: Pseudomonas aeruginosa; experiment: Antibacterial activity against VIM2 carbapenemase producing multidrug-resistant Pseudomonas aeruginosa 16 clinical isolate up to 512 mg/L by broth microtiter dilution method; type: functional, organism-based
[4] = tested on: Klebsiella pneumoniae; experiment: Potentiation of meropenem-induced antibacterial activity against VIM4 carbapenemase producing multidrug-resistant Klebsiella pneumoniae 196 clinical isolate assessed as MIC of meropenem at 1:8 meropenem:compound ratio by broth microtiter dilution method; type: functional
[5] = tested on: Klebsiella pneumoniae; experiment: Potentiation of meropenem-induced antibacterial activity against VIM1 carbapenemase producing multidrug-resistant Klebsiella pneumoniae GR54 clinical isolate assessed as MIC of meropenem at 1:8 meropenem:compound ratio by broth microtiter dilution method; type: functional
[6] = tested on: Klebsiella oxytoca; experiment: Potentiation of meropenem-induced antibacterial activity against VIM4 carbapenemase producing multidrug-resistant Klebsiella oxytoca 126 clinical isolate assessed as MIC of meropenem at 1:8 meropenem:compound ratio by broth microtiter dilution method; type: functional
[7] = tested on: Klebsiella pneumoniae; experiment: Potentiation of meropenem-induced antibacterial activity against VIM4 carbapenemase producing multidrug-resistant Klebsiella pneumoniae 120 clinical isolate infected in Galleria mellonella larvae assessed as survival rate at 4.8 mg/kg measured at 96 hrs; type: functional; conditions: Klebsiella pneumoniae, 120, 96 h
[8] = tested on: Klebsiella oxytoca; experiment: Potentiation of meropenem-induced antibacterial activity against VIM4 carbapenemase producing multidrug-resistant Klebsiella oxytoca 95 clinical isolate at 1:8 meropenem:compound ratio by checkerboard method; type: functional
[9] = tested on: Pseudomonas aeruginosa; experiment: Potentiation of meropenem-induced antibacterial activity against VIM2 carbapenemase producing multidrug-resistant Pseudomonas aeruginosa 13 clinical isolate at 1:8 meropenem:compound ratio by checkerboard method; type: functional
[10] = tested on: Escherichia coli; experiment: Potentiation of meropenem-induced antibacterial activity against VIM4 carbapenemase producing multidrug-resistant Escherichia coli 98 clinical isolate at 1:8 meropenem:compound ratio by checkerboard method; type: functional
[11] = tested on: Klebsiella pneumoniae; experiment: Antibacterial activity against VIM4 carbapenemase producing multidrug-resistant Klebsiella pneumoniae 128 clinical isolate up to 512 mg/L by broth microtiter dilution method; type: functional, organism-based
[12] = tested on: Klebsiella pneumoniae; experiment: Potentiation of meropenem-induced antibacterial activity against VIM1 carbapenemase producing multidrug-resistant Klebsiella pneumoniae GR54 clinical isolate at 1:8 meropenem:compound ratio by checkerboard method; type: functional
[13] = tested on: Klebsiella pneumoniae; experiment: Potentiation of meropenem-induced antibacterial activity against VIM4 carbapenemase producing multidrug-resistant Klebsiella pneumoniae 120 clinical isolate at 1:8 meropenem:compound ratio by checkerboard method; type: functional
[14] = tested on: Pseudomonas aeruginosa; experiment: Potentiation of meropenem-induced antibacterial activity against VIM2 carbapenemase producing multidrug-resistant Pseudomonas aeruginosa 6 clinical isolate assessed as MIC of meropenem at 1:8 meropenem:compound ratio by broth microtiter dilution method; type: functional
[15] = tested on: Escherichia coli; experiment: Potentiation of meropenem-induced antibacterial activity against VIM4 carbapenemase producing multidrug-resistant Escherichia coli 98 clinical isolate assessed as MIC of meropenem at 1:8 meropenem:compound ratio by broth microtiter dilution method; type: functional
[16] = tested on: Klebsiella pneumoniae; experiment: Potentiation of meropenem-induced antibacterial activity against VIM1 carbapenemase producing multidrug-resistant Klebsiella pneumoniae 177 clinical isolate at 1:8 meropenem:compound ratio by checkerboard method; type: functional
[17] = tested on: Klebsiella pneumoniae; experiment: Antibacterial activity against VIM4 carbapenemase producing multidrug-resistant Klebsiella pneumoniae 101 clinical isolate up to 512 mg/L by broth microtiter dilution method; type: functional, organism-based
[18] = tested on: Pseudomonas aeruginosa; experiment: Potentiation of meropenem-induced antibacterial activity against VIM2 carbapenemase producing multidrug-resistant Pseudomonas aeruginosa 50 clinical isolate assessed as MIC of meropenem at 1:8 meropenem:compound ratio by broth microtiter dilution method; type: functional
[19] = tested on: Providencia stuartii; experiment: Antibacterial activity against VIM1 carbapenemase producing multidrug-resistant Providencia stuartii 67 clinical isolate up to 512 mg/L by broth microtiter dilution method; type: functional, organism-based
[20] = tested on: Pseudomonas aeruginosa; experiment: Potentiation of meropenem-induced antibacterial activity against VIM2 carbapenemase producing multidrug-resistant Pseudomonas aeruginosa 9 clinical isolate at 1:8 meropenem:compound ratio by checkerboard method; type: functional
[21] = tested on: Escherichia coli; experiment: Antibacterial activity against VIM4 carbapenemase producing multidrug-resistant Escherichia coli 98 clinical isolate up to 512 mg/L by broth microtiter dilution method; type: functional, organism-based
[22] = tested on: Pseudomonas aeruginosa; experiment: Antibacterial activity against VIM2 carbapenemase producing multidrug-resistant Pseudomonas aeruginosa 12 clinical isolate up to 512 mg/L by broth microtiter dilution method; type: functional, organism-based
[23] = tested on: Pseudomonas aeruginosa; experiment: Potentiation of meropenem-induced antibacterial activity against VIM2 carbapenemase producing multidrug-resistant Pseudomonas aeruginosa 47 clinical isolate assessed as MIC of meropenem at 1:8 meropenem:compound ratio by broth microtiter dilution method; type: functional
[24] = tested on: Klebsiella pneumoniae; experiment: Potentiation of meropenem-induced antibacterial activity against VIM1 carbapenemase producing multidrug-resistant Klebsiella pneumoniae 177 clinical isolate assessed as MIC of meropenem at 1:8 meropenem:compound ratio by broth microtiter dilution method; type: functional
[25] = tested on: Pseudomonas aeruginosa; experiment: Potentiation of meropenem-induced antibacterial activity against VIM2 carbapenemase producing multidrug-resistant Pseudomonas aeruginosa 30 clinical isolate assessed as MIC of meropenem at 1:8 meropenem:compound ratio by broth microtiter dilution method; type: functional
[26] = tested on: Escherichia coli; experiment: Potentiation of meropenem-induced antibacterial activity against VIM4 carbapenemase producing multidrug-resistant Escherichia coli 98 clinical isolate infected in Galleria mellonella larvae assessed as relative risk of survival at 4.8 mg/kg measured at 96 hrs relative to control; type: functional
[27] = tested on: Pseudomonas aeruginosa; experiment: Antibacterial activity against VIM2 carbapenemase producing multidrug-resistant Pseudomonas aeruginosa 47 clinical isolate up to 512 mg/L by broth microtiter dilution method; type: functional, organism-based
[28] = tested on: Klebsiella pneumoniae; experiment: Antibacterial activity against VIM4 carbapenemase producing multidrug-resistant Klebsiella pneumoniae 120 clinical isolate up to 512 mg/L by broth microtiter dilution method; type: functional, organism-based
[29] = tested on: Pseudomonas aeruginosa; experiment: Potentiation of meropenem-induced antibacterial activity against VIM2 carbapenemase producing multidrug-resistant Pseudomonas aeruginosa 13 clinical isolate assessed as MIC of meropenem at 1:8 meropenem:compound ratio by broth microtiter dilution method; type: functional
[30] = tested on: Pseudomonas aeruginosa; experiment: Potentiation of meropenem-induced antibacterial activity against VIM2 carbapenemase producing multidrug-resistant Pseudomonas aeruginosa GR57 clinical isolate infected in Galleria mellonella larvae assessed as survival rate at 4.8 mg/kg measured at 96 hrs; type: functional; conditions: GR57, 96 h
[31] = tested on: Klebsiella oxytoca; experiment: Antibacterial activity against VIM4 carbapenemase producing multidrug-resistant Klebsiella oxytoca 95 clinical isolate up to 512 mg/L by broth microtiter dilution method; type: functional, organism-based
[32] = tested on: Pseudomonas aeruginosa; experiment: Antibacterial activity against VIM2 carbapenemase producing multidrug-resistant Pseudomonas aeruginosa 15 clinical isolate up to 512 mg/L by broth microtiter dilution method; type: functional, organism-based
[33] = tested on: Providencia stuartii; experiment: Antibacterial activity against VIM1 carbapenemase producing multidrug-resistant Providencia stuartii 70 clinical isolate up to 512 mg/L by broth microtiter dilution method; type: functional, organism-based
[34] = tested on: Pseudomonas aeruginosa; experiment: Potentiation of meropenem-induced antibacterial activity against VIM2 carbapenemase producing multidrug-resistant Pseudomonas aeruginosa GR57 clinical isolate infected in Galleria mellonella larvae assessed as relative risk of survival at 4.8 mg/kg measured at 96 hrs relative to control; type: functional
[35] = tested on: Providencia stuartii; experiment: Potentiation of meropenem-induced antibacterial activity against VIM1 carbapenemase producing multidrug-resistant Providencia stuartii 70 clinical isolate assessed as MIC of meropenem at 1:8 meropenem:compound ratio by broth microtiter dilution method; type: functional

Compound: O=C(O)/C(S)=C/c1c(Cl)ccc(Cl)c1Cl
- fractional inhibitory concentration index (FICI) [1]: 0.19
- MIC [2]: 2 µg/mL
- Activity [3]: inactive
- MIC [4]: 1 µg/mL
- MIC [5]: 4 µg/mL
- MIC [6]: 4 µg/mL
- survival at 4.8 mg/kg [7]: 98%
- fractional inhibitory concentration index (FICI) [8]: 0.38
- fractional inhibitory concentration index (FICI) [9]: 0.75
- fractional inhibitory concentration index (FICI) [10]: 0.16
- Activity [11]: inactive
- fractional inhibitory concentration index (FICI) [12]: 0.09
- fractional inhibitory concentration index (FICI) [13]: 0.25
- MIC [14]: 16 µg/mL
- MIC [15]: 2 µg/mL
- fractional inhibitory concentration index (FICI) [16]: 1.02
- Activity [17]: inactive
- MIC [18]: 8 µg/mL
- Activity [19]: inactive
- fractional inhibitory concentration index (FICI) [20]: 0.38
- Activity [21]: inactive
- Activity [22]: inactive
- MIC [23]: 1 µg/mL
- MIC [24]: 1 µg/mL
- MIC [25]: 8 µg/mL
- fold change (FC) [26]: 0.64
- Activity [27]: inactive
- Activity [28]: inactive
- MIC [29]: 16 µg/mL
- survival at 4.8 mg/kg [30]: 81%
- Activity [31]: inactive
- Activity [32]: inactive
- Activity [33]: inactive
- fold change (FC) [34]: 0.28
- MIC [35]: 1 µg/mL
